Test results published in paper PMC10447463, “Data-mining unveils structure–property–activity correlation of viral infectivity enhancing self-assembling peptides” (Nature Communications, 2023).
Read-outs that look alike come from different tables or passages of the source.

Experiments:
[1] = system: HIV-1 infection of TZM-bl cells; assay: HIV-1 infectivity enhancement assay, β-galactosidase luminescence; format: cell-based; settings: for Rel-EFC: infection relative to EF-C (QCKIKQIINMWQ = 1); for Log10 Infection Rel EFC: log10 of infection relative to EF-C; for Rel-to EFC (Feb-2021): n-fold infectivity relative to EF-C; for Log Infectivity: Log10 infection relative to EF-C, TZM-bl cells; for Log10 Infection Rel EF-C: HIV-1 infection of TZM-bl cells; for Abs. Inf.: absolute infection signal, HIV-1 on TZM-bl cells, β-galactosidase luminescence
[2] = Zeta-potential measurement; format: physicochemical
In short: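 Dissolve peptide from DMSO (10 mg/mL stock) into PBS pH 7.4 to 1 mg/mL. Incubate 1 d, RT. Dilute in 1 mM KCl just before reading. Derive zeta potential from mobility (Smoluchowski).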

[3] = Turbidity, derived count rate of scattered light; format: physicochemical; settings: for Log Count Rate: log of derived count rate; for Count Rate / kcps: derived count rate of scattered light at 633 nm, 173°, from zeta-potential measurement, 0.1 mg/mL in 1 mM KCl after 1 d at 1 mg/mL in PBS, turbidity / microscopic aggregation, mean of triplicate
In short: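 One-day room-temperature aggregation at 1 mg/mL in PBS (pH 7.4) preceded measurement; samples then went into 1 mM KCl. Triplicates per sample, two independent experiments averaged.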

[4] = Turbidity, derived count rate of scattered light; format: physicochemical; settings: for Count Rate: derived count rate of scattered light (turbidity); for Log10 Count Rate: turbidity, derived count rate of scattered light, data of Figure 2D
[5] = Fig. S7 panel A (plotted against β-sheet content), asymmetric std dev errors
[6] = Fig. S7 panel B (plotted against CR), rounded to two decimals, asymmetric std dev errors
[7] = Log10 of infection rate relative to EF-C, Figure 3A source data
[8] = infection rate relative to EF-C, log10, data of Figure 2D
[9] = infection rate relative to EF-C, log10, source data of Figure 2C
[10] = Log10 of infection relative to EF-C, all peptides of FigS16
[11] = log10 of HIV-1 infection of TZM-bl cells relative to EF-C (EF-C = 0)
[12] = zeta-potential of peptide, source data of Figure 2C
[13] = zeta-potential of the peptide assemblies, mean, Figure 3A source data
[14] = Log10 of derived count rate of scattered light (turbidity)
[15] = turbidity, Log10 of derived count rate of scattered light, Figure 3A source data
[16] = turbidity, log10 of derived count rate of scattered light

QCKIKQIINMWQ [reference compound]
Rel-EFC ([1]; 1.3 µM peptide): 1
n-fold infectivity enhancement compared to virus-only infectivity ([1]; 1.3 µM peptide, listed as EF-C): 42 ± 7
Log10 Infection Rel EFC ([1]; 1.3 µM peptide): 0
Absolute Infectivity / RLU /s (Feb2021) ([1]; Feb2021, figures match the 1.3 µM column): 21312.22222 RLU /s
n-fold to virus (Feb2021) ([1]; Feb2021, infectivity relative to virus only): 42.02
Rel-to EFC (Feb-2021) ([1]; Feb2021): 1
n-fold to virus (Feb2021) ([1]; Feb2021 run, infectivity n-fold relative to virus alone): 42.02
Log10 of Rel to EFC (Feb2021) ([1]; Feb2021 run, log10 of infectivity relative to EF-C): 0
Rel-to EFC (Feb-2021) ([1]; Feb2021 run): 1
Rel-to EFC ([1]; Fig S8 panels B, D, infectivity enhancement relative to EF-C): 1
n-fold to virus ([1]; Fig S8 panels B, D, infectivity n-fold relative to virus alone): 42.02
Log Infectivity [1, 5]: 0
Log Infectivity [1, 6]: 0
Log10 Infection Rel EF-C [1, 7]: 0
Log10 Infection Rel EF-C [1, 8]: 0
Log10 Infection Rel EF-C [1, 9]: 0
Log10 of Rel to EFC (Feb2021) [1, 10]: 0
Abs. Inf. [1]: 21312.22222
infectivity ([1]; infectivity class (low / medium / high) of the peptide in the sequence-pattern analysis, Fig. S22-A4, class limits not given): high
Log10 Inf. rel. to EF-C [1, 11]: 0
Log10 Inf. rel. to EF-C ([1]; log10 of HIV-1 infection of TZM-bl cells relative to EF-C, Fig S15 source data, asymmetric std dev errors): 0
Abs Infection at 0.26µM ([1]; peptide 0.26 µM, mean of n = 3, Figure 7A): 39053.33333
Abs Infection at 1.3 µM ([1]; peptide 1.3 µM, mean of n = 3, Figure 7A): 101036.6667
Abs Infection at 6.5 µM ([1]; peptide 6.5 µM, mean of n = 3, Figure 7A): 141063.3333
Zeta Pot. / mV [2]: 6.643 mV
Zeta category ( +1 = if > 4 mV;-1 = if < -4 mV; 0 = -4mV to 4 mV) [2]: 1 (+1 = if > 4 mV)
Zeta-Pot. [2]: 6.643
Zeta category ( +1 = if > 4 mV;-1 = if < -4 mV; 0 = -4mV to 4 mV) ([2]; category from zeta potential): 1 (+1 = if > 4 mV)
Zeta Pot. / mV ([2]; mean, Std Zeta in next column): 6.643 mV
Zeta Pot. / mV ([2]; mean, Std in separate column): 6.643 mV
Zeta-pot. / mV ([2]; zeta potential of peptide, Fig S15 source data): 6.643 mV
Zeta-Potential / mV [2, 12]: 7.192 mV
Zeta-Potential / mV [2, 13]: 6.64 mV
Log Count Rate ([3]; Fig S8 panels A, C, asymmetric log errors): 3.415
Log Count Rate ([3]; Fig S8 panels B, D): 3.415
Count Rate ([3]; Fig S8 panels B, D, turbidity, derived count rate of scattered light): 2602.27
Log10 Count Rate [3, 14]: 3.415
Zeta Count Rate Category ([3]; category 1 / 0, no key given): 1
Zeta Count Rate Category ([3]; category 1 or 0 from count rate, key not given): 1
Zeta Count Rate / kcps ([3]; derived count rate of scattered light): 2602 kcps
Count Rate / kcps [3]: 2606 kcps
Zeta Count Rate / kcps ([3]; derived count rate of scattered light, mean, std deviation in next column): 2602 kcps
Zeta Count Rate / kcps ([3]; derived count rate of scattered light, mean, std deviation in separate column): 2602 kcps
Log10 Count Rate ([3]; logarithm of count rate in kcps): 3.415
Log10 Count Rate [3, 15]: 3.415
Log10 Count Rate [3, 16]: 3.415
Count Rate [4]: 2602
Log10 Count Rate [4]: 3.415

RGDKIRGDKI
Rel-EFC ([1]; 1.3 µM peptide): 0,01
Log10 Infection Rel EFC ([1]; 1.3 µM peptide): -2,13
Log Infectivity [1, 5]: -2.126
Log Infectivity [1, 6]: -2.13
Log10 Infection Rel EF-C [1, 7]: -2.13
Log10 Infection Rel EF-C [1, 8]: -2.126
Log10 Infection Rel EF-C [1, 9]: -2.126
Abs. Inf. [1]: 163.3
Log10 Inf. rel. to EF-C [1, 11]: -2.126
Zeta-Pot. [2]: -13.57
Zeta-Potential / mV [2, 12]: -7.422 mV
Zeta-Potential / mV [2, 13]: -13.57 mV
Log10 Count Rate [3, 14]: 2.456
Count Rate / kcps [3]: 286 kcps
Log10 Count Rate [3, 15]: 2.456
Log10 Count Rate [3, 16]: 2.456
Count Rate [4]: 285.8
Log10 Count Rate [4]: 2.456

RGECKFKFQF
Rel-EFC ([1]; 1.3 µM peptide): 0,33
Log10 Infection Rel EFC ([1]; 1.3 µM peptide): -0,48
Log Infectivity [1, 5]: -0.4776
Log Infectivity [1, 6]: -0.48
Log10 Infection Rel EF-C [1, 7]: -0.48
Log10 Infection Rel EF-C [1, 8]: -0.4776
Log10 Infection Rel EF-C [1, 9]: -0.4776
Log10 of Rel to EFC (Feb2021) [1, 10]: -0.48
Abs. Inf. [1]: 7411
Log10 Inf. rel. to EF-C [1, 11]: -0.4776
Zeta-Pot. [2]: 23.97
Zeta-Potential / mV [2, 12]: 22.32 mV
Zeta-Potential / mV [2, 13]: 23.97 mV
Log10 Count Rate [3, 14]: 2.341
Count Rate / kcps [3]: 219 kcps
Log10 Count Rate [3, 15]: 2.341
Log10 Count Rate [3, 16]: 2.341
Count Rate [4]: 219.3
Log10 Count Rate [4]: 2.341

RGEKIKIQINM
Rel-EFC ([1]; 1.3 µM peptide): 0,24
Log10 Infection Rel EFC ([1]; 1.3 µM peptide): -0,61
Log Infectivity [1, 5]: -0.6134
Log Infectivity [1, 6]: -0.61
Log10 Infection Rel EF-C [1, 7]: -0.61
Log10 Infection Rel EF-C [1, 8]: -0.6134
Log10 Infection Rel EF-C [1, 9]: -0.6134
Log10 of Rel to EFC (Feb2021) [1, 10]: -0.61
Abs. Inf. [1]: 7838
Log10 Inf. rel. to EF-C [1, 11]: -0.6134
Zeta-Pot. [2]: 15.3
Zeta-Potential / mV [2, 12]: 16.35 mV
Zeta-Potential / mV [2, 13]: 15.3 mV
Log10 Count Rate [3, 14]: 2.774
Count Rate / kcps [3]: 595 kcps
Log10 Count Rate [3, 15]: 2.774
Log10 Count Rate [3, 16]: 2.774
Count Rate [4]: 594.6
Log10 Count Rate [4]: 2.774

RLRLTLC
Rel-EFC ([1]; 1.3 µM peptide): 0,05
Log10 Infection Rel EFC ([1]; 1.3 µM peptide): -1,29
Log Infectivity [1, 5]: -1.288
Log Infectivity [1, 6]: -1.29
Log10 Infection Rel EF-C [1, 7]: -1.29
Log10 Infection Rel EF-C [1, 8]: -1.288
Log10 Infection Rel EF-C [1, 9]: -1.288
Abs. Inf. [1]: 1334
Log10 Inf. rel. to EF-C [1, 11]: -1.288
Zeta-Pot. [2]: 19.67
Zeta-Potential / mV [2, 12]: 20.73 mV
Zeta-Potential / mV [2, 13]: 19.67 mV
Log10 Count Rate [3, 14]: 2.0991
Count Rate / kcps [3]: 126 kcps
Log10 Count Rate [3, 15]: 2.0991
Log10 Count Rate [3, 16]: 2.0991
Count Rate [4]: 125.6
Log10 Count Rate [4]: 2.0991

RPRGLLLGNLR
Rel-EFC ([1]; 1.3 µM peptide): 0,05
Log10 Infection Rel EFC ([1]; 1.3 µM peptide): -1,32
Log Infectivity [1, 5]: -1.3163
Log10 Infection Rel EF-C [1, 7]: -1.32
Log10 Infection Rel EF-C [1, 8]: -1.3163
Log10 Infection Rel EF-C [1, 9]: -1.3163
Abs. Inf. [1]: 716.7
Log10 Inf. rel. to EF-C [1, 11]: -1.3163
Zeta-Pot. [2]: -8.15
Zeta-Potential / mV [2, 12]: -5.002 mV
Zeta-Potential / mV [2, 13]: -8.15 mV
Log10 Count Rate [3, 14]: 2.322
Count Rate / kcps [3]: 210 kcps
Log10 Count Rate [3, 15]: 2.322
Log10 Count Rate [3, 16]: 2.322
Count Rate [4]: 210.1
Log10 Count Rate [4]: 2.322
